We go through 10 compounds from US20210238197A1, “NOVEL OXOQUINOLIZINE COMPOUNDS FOR THE TREATMENT AND PROPHYLAXIS OF BACTERIAL INFECTION” (Hoffmann-La Roche Inc., priority 2018, published 2021).

The subject of one series is A. baumannii (ATCC17978). Kind of series: 50% growth inhibitory concentration (IC50) determination assay, A. baumannii. The series is classed as cell-based. The note with it: Acinetobacter baumannii, ATCC17978; Iso-Sensitest broth, growth by OD 600 nm over 16 h; <0.098 = detection limit. The method in brief:
(§1)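 Compounds two-fold diluted from 50 to 0.097 μM (final) in Iso-Sensitest broth, inoculum ~5×10^5 CFU/mL. Incubation at 35±2 °C with OD600 read every 20 min over 16 h to track growth.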

The test system of another series is S. aureus (ATCC29213). Kind of series: 50% growth inhibitory concentration (IC50) determination assay, S. aureus. It counts as cell-based. Conditions: Staphylococcus aureus, ATCC29213; Iso-Sensitest broth, growth by OD 600 nm over 16 h; <0.098 = detection limit. Summed up: as §1
The nature of series [1]: Cytotoxicity assay (HepG2, CellTiter-Blue). The series is classed as cell-based. The note with it: human; HepG2 cells, 3 days treatment; >100 = detection limit. The method, then: The cytotoxicity of compounds of present invention was assessed by HepG2 assay. HepG2 cells (ATCC RB-8065™) were seeded into 96-well plates (1.2×10^4 cells per well) and treated with compounds for 3 days, cell viability was measured at day 3 post compound treatment using the CellTiter-Blue® Cell Viability Assay (Promega, Cat. No. G8082). […], of Cell titer blue buffer were added to each well of the cells, which were incubated for 3 hours at 37° C., and the fluorescence value was measured by a plate reader (Molecular Device SpectraMax M2). The CC50 value of each compound is plotted with GraphPad Prism using four parameter logistic equation.
A general note: The colour change of resazurin is a common sign of viable cells or microbes.

Series [2] relates to K. pneumoniae (ATCC10031). Kind of series: 50% growth inhibitory concentration (IC50) determination assay, K. pneumoniae. Conditions: Klebsiella pneumoniae, ATCC10031; Iso-Sensitest broth, growth by OD 600 nm over 16 h; <0.098 = detection limit. The series is classed as cell-based. Summed up: as §1
Series [3] in a line: Lyophilisation solubility assay (LYSA). The series is classed as physicochemical. Conditions: aqueous buffer, thermodynamic from solid; 0.05 M phosphate buffer, pH 6.5; <1.0 = detection limit. The method, then: The solubility of compounds of present invention was assessed by LYSA assay. Samples were prepared in duplicate from 10 mM DMSO stock solutions (20 μL) diluted in 30 μL pure DMSO. After evaporation of DMSO with a centrifugal vacuum evaporator, the residue was dissolved in 0.05 M phosphate buffer (150 μL, pH 6.5), which was stirred for one hour and shook for two hours. After one night, the solution was filtered using a microtiter filter plate. Then the filtrate and its 1/10 dilution were analyzed by HPLC-UV. In addition a four-point calibration curve was prepared from the 10 mM stock solutions and used for the solubility determination of the compounds.

For series [4], the system named is multiple species and strains. Kind of series: microbe, parasite or virus in culture. The arrangement: MIC S9 / MIC S7 / MIC S11 / MIC S8 / MIC S10: unit not given beside the values. The method in brief: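 Broth microdilution per CLSI M07-A10 in CAMHB, CAMHB+3% lysed horse blood or HTM. Inoculum was set to OD600 ~0.1, then diluted 1:280 (Gram-positive) or 1:400 (Gram-negative), and plates were incubated 18-24 h at 35±2° C in ambient air. MIC (μg/mL) is the lowest concentration giving no visible growth.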

Series [5] in a line: Single dose PK study (SDPK) in female CD-1 mouse. The series is classed as in vivo. Conditions: IV bolus, 1.0 mg/kg solution. The method, then: The single dose PK in female CD-1 mouse was performed to assess compound's pharmacokinetic properties. One group of animals were dosed via bolus intravenous (IV) of the respective compound. Blood samples (approximately 30 μL) were collected via saphenous vein at 5 mins, 15 min, 30 min, 1 hr, 2 hr, 4 hr and 7 hr. For last time point (24 hr), samples were collected via cardiac puncture while the mouse was under anesthesia. Blood samples were placed into tubes containing EDTA-K2 anticoagulant (2 μL of 0.5M per tube) and centrifuged at 3000 rpm for 10 minutes at 4° C. within half an hour to separate plasma from the samples. Following centrifugation, plasma samples were stored in polypropylene tubes, quick frozen over dry ice and kept at −70±10° C. until LC/MS/MS analysis. The pharmacokinetic parameters were calculated using non-compartmental module of WinNonlin® Professional 6.4.

Values after ≈ are worked out from the molar mass of the structure shown. Like-named read-outs stand apart in the source and are kept apart here.

The term IC50 denotes the concentration that inhibits the measured activity by half. As usually defined, the CC50 is the concentration giving 50% cytotoxicity. Usually solubility (thermodynamic) stands for solubility found after equilibrating the solid with the medium. Consider `CNc1cc(F)c(F)c2c1[nH]c1ncc(-c3ccc4c(CN(C)C)cc(C(=O)O)c(=O)n4c3)c(N3CC[C@H]4CN(C)C[C@H]43)c12` (relative stereo) [Example 2.03, 7-[4-[cis-5-methyl-2,3,3a,4,6,6a-hexahydropyrrolo[2,3-c]pyrrol-1-yl]-5,6-difluoro-8-(methylamino)-9H-pyrido[2,3-b]indol-3-yl]-1-[(dimethylamino)methyl]-4-oxo-quinolizine-3-carboxylic acid], for which the results for the IC50 (in the series on A. baumannii (ATCC17978); in the series on S. aureus (ATCC29213); in series [2]) were below 98 nM, 194 nM and below 98 nM, respectively. Moreover, the CC50 at 3 days in series [1] came to 46400 nM. In addition, the thermodynamic solubility in series [3] is above 1060 µg/mL.
For the compound `CNc1cc(F)c(F)c2c1[nH]c1ncc(-c3ccc4c(CN5CCOCC5)cc(C(=O)O)c(=O)n4c3)c(N3CC[C@H]4CN(C)C[C@H]43)c12` (relative stereo) [Example 2.09, 7-[4-[cis-5-methyl-2,3,3a,4,6,6a-hexahydropyrrolo[2,3-c]pyrrol-1-yl]-5,6-difluoro-8-(methylamino)-9H-pyrido[2,3-b]indol-3-yl]-1-(morpholinomethyl)-4-oxo-quinolizine-3-carboxylic acid], the concentration for half-maximal inhibition (IC50) in the series with A. baumannii (ATCC17978) is below 98 nM; in the series on S. aureus (ATCC29213) it was 174 nM; in series [2], below 98 nM. In series [1], it took 86900 nM to reach half-maximal cytotoxicity (CC50 at 3 days). The compound further had a solubility (thermodynamic) in series [3] of 795 µg/mL (≈ 1240 µM).
With `CNc1cc(F)c(F)c2c1[nH]c1ncc(-c3ccc4c(CN5CCCC5)cc(C(=O)O)c(=O)n4c3)c(N3CC[C@H]4CN(C)C[C@H]43)c12` (relative stereo) [Example 2.10, 7-[4-[cis-5-methyl-2,3,3a,4,6,6a-hexahydropyrrolo[2,3-c]pyrrol-1-yl]-5,6-difluoro-8-(methylamino)-9H-pyrido[2,3-b]indol-3-yl]-4-oxo-1-(pyrrolidin-1-ylmethyl)quinolizine-3-carboxylic acid], the CC50 at 3 days in series [1] was 89200 nM. Further, in series [3], the solubility (thermodynamic) was above 940 µg/mL.
Consider `CNc1cc(F)cc2c1[nH]c1ncc(-c3ccc4ccc(C(=O)O)c(=O)n4c3)c(N3CC[C@H]4CN(C)C[C@H]43)c12` (single isomer, unassigned) [Example 3.02A], for which the concentration for half-maximal inhibition (IC50) in the series with A. baumannii (ATCC17978) was below 98 nM; in the series with S. aureus (ATCC29213), 102 nM; in series [2] it was below 98 nM. This compound yielded a CC50 at 3 days in series [1] of 41300 nM. Further, in series [3], the thermodynamic solubility was determined as 559 µg/mL (≈ 1060 µM).
Regarding `CNc1cc(F)cc2c1[nH]c1ncc(-c3ccc4ccc(C(=O)O)c(=O)n4c3)c(N3CC[C@@H]4CN(C)C[C@@H]43)c12` (single isomer, unassigned) [Example 3.02B], the IC50 was 483 nM in the series with A. baumannii (ATCC17978), 1280 nM in the series on S. aureus (ATCC29213) and below 98 nM in series [2]. Also, the thermodynamic solubility in series [3] is above 683 µg/mL.
On to `CNc1cc(F)c(C#N)c2c1[nH]c1ncc(-c3ccc4ccc(C(=O)O)c(=O)n4c3)c(N3CC[C@H]4CCN(C)C4C3)c12` (stereo in doubt) [Example 1.17, 7-[4-[cis-1-methyl-3,3a,4,5,7,7a-hexahydro-2H-pyrrolo[2,3-c]pyridin-6-yl]-5-cyano-6-fluoro-8-(methylamino)-9H-pyrido[2,3-b]indol-3-yl]-4-oxo-quinolizine-3-carboxylic acid], for which the values for the IC50 (with A. baumannii (ATCC17978); with S. aureus (ATCC29213); in series [2]) were below 98 nM, 139 nM and below 98 nM, respectively. Moreover, the MIC in series [4] (Acinetobacter baumannii, ATCC19606, read-out: MIC S1, A. baumannii ATCC 19606) was determined as 0.882 µg/mL (≈ 1.56 µM); in series [4] (Acinetobacter baumannii, ATCC51432, read-out: MIC S2, A. baumannii ATCC 51432), 0.882 µg/mL (≈ 1.56 µM); in series [4] (Acinetobacter baumannii, ATCCBAA747, read-out: MIC S3, A. baumannii ATCC BAA-747) it was 0.882 µg/mL (≈ 1.56 µM); in series [4] (Escherichia coli, ATCC25922, read-out: MIC S11, E. coli ATCC 25922), 0.166 µg/mL (≈ 0.293 µM); in series [4] (Escherichia coli, ATCCBAA2340, read-out: MIC S10, E. coli ATCC BAA-2340), 0.882 µg/mL (≈ 1.56 µM); in series [4] (Klebsiella pneumoniae, ATCC10031, read-out: MIC S4, K. pneumoniae ATCC 10031) it was 0.028 µg/mL (≈ 0.0495 µM). In addition, the MIC in series [4] (Klebsiella pneumoniae, ATCC700603, read-out: MIC S5, K. pneumoniae ATCC 700603) turned out to be 3.54 µg/mL (≈ 6.25 µM); in series [4] (Klebsiella pneumoniae, ATCCBAA2146, read-out: MIC S6, K. pneumoniae ATCC BAA-2146) it was 3.54 µg/mL (≈ 6.25 µM); in series [4] (Pseudomonas aeruginosa, ATCC27853, read-out: MIC S7, P. aeruginosa ATCC 27853), 0.882 µg/mL (≈ 1.56 µM); in series [4] (Pseudomonas aeruginosa, ATCCBAA2113, read-out: MIC S8, P. aeruginosa ATCC BAA-2113) it was 3.54 µg/mL (≈ 6.25 µM). In series [4] (E. coli ATCC 35218), the “MIC S9” value turned out to be 0.882. In addition, in series [3], the solubility (thermodynamic) was determined as 12 µg/mL (≈ 21.2 µM).
Turning to `CNc1cc(F)cc2c1[nH]c1ncc(-c3ccc4ccc(C(=O)O)c(=O)n4c3)c(N3CCC4(C)CN(C)CC34)c12` (stereo not drawn) [Example 1.10, 7-[4-(3a,5-dimethyl-3,4,6,6a-tetrahydro-2H-pyrrolo[2,3-c]pyrrol-1-yl)-6-fluoro-8-(methylamino)-9H-pyrido[2,3-b]indol-3-yl]-4-oxo-quinolizine-3-carboxylic acid], the IC50 (with A. baumannii (ATCC17978); with S. aureus (ATCC29213); in series [2]) was below 98 nM in each case. Besides, the thermodynamic solubility in series [3] is 90 µg/mL (≈ 166 µM).
Regarding `CNc1cc(F)cc2c1[nH]c1ncc(-c3ccc4ccc(C(=O)O)c(=O)n4c3)c(N3CCO[C@H](CN(C)C)C3)c12` [Example 2.07, (R)-7-(4-(2-((dimethylamino)methyl)morpholino)-6-fluoro-8-(methylamino)-9H-pyrido[2,3-b]indol-3-yl)-4-oxo-4H-quinolizine-3-carboxylic acid], the half-inhibitory concentration (IC50) in the series on A. baumannii (ATCC17978) is 242 nM; with S. aureus (ATCC29213), 379 nM; in series [2], below 98 nM. In addition, in series [3], the solubility (thermodynamic) was 48 µg/mL (≈ 88.1 µM).
Consider `CNc1cc(F)cc2c1[nH]c1ncc(-c3ccc4ccc(C(=O)O)c(=O)n4c3)c(N3CCO[C@@H](CN(C)C)C3)c12` [Example 2.08, (S)-7-(4-(2-((dimethylamino)methyl)morpholino)-6-fluoro-8-(methylamino)-9H-pyrido[2,3-b]indol-3-yl)-4-oxo-4H-quinolizine-3-carboxylic acid], for which the figures for the IC50 (in the series with A. baumannii (ATCC17978); in the series with S. aureus (ATCC29213); in series [2]) were 132 nM, 433 nM and below 98 nM, respectively. In addition, the solubility (thermodynamic) in series [3] turned out to be 54 µg/mL (≈ 99.2 µM).
Take `CNc1cc(F)c(Cl)c2c1[nH]c1ncc(-c3ccc4ccc(C(=O)O)c(=O)n4c3)c(N3CC[C@]4(C[C@@H]4N)C3)c12` [Example 5.01D, 7-(4-((1S,3S)-1-amino-5-azaspiro[2.4]heptan-5-yl)-5-chloro-6-fluoro-8-(methylamino)-9H-pyrido[2,3-b]indol-3-yl)-4-oxo-4H-quinolizine-3-carboxylic acid]: the half-maximal inhibitory concentration (IC50) (in the series with A. baumannii (ATCC17978); in the series with S. aureus (ATCC29213); in series [2]) was below 98 nM each time. Also, the CC50 at 3 days in series [1] is above 100000 nM. This compound also gave an AUC total in series [5] of 180 ng·h/mL. Moreover, the clearance in series [5] (plasma, read-out: CL total) was 93 mL/min/kg.
